Experimental data: patent US10821115B2, “Compounds that inhibit Mcl-1 protein” (priority 2017, dated 2020)
Where two headings read alike, the source gives them in different places.

Assays:
[1] = target: recombinant human Mcl-1 (residues 171-327) / Bim interaction (Homo sapiens (Human), UniProt Q07820); test: biochemical; format: binding; conditions: read-out: Mcl-1 HTRF IC50
[2] = test system: human multiple myeloma cell line, OPM-2; test: Cell viability assay (OPM-2 10 FBS), CellTiter-Glo; format: cell-based; conditions: Homo sapiens, OPM-2, 16 h, read-out: OPM-2 10% FBS IC50 IP, OPM-2 cells, 10% FBS, 16 h, CellTiter-Glo
Method in brief: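 Cells were seeded at 3000 cells/well in RPMI 1640 with 10% FBS and exposed to serially diluted compounds for 16 h at 37 °C, 5% CO2.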

[3] = TR-FRET, Mcl-1(171-327) / biotin-Bim (51-76)

recombinant human Mcl-1 (residues 171-327) / Bim interaction, sequence (Q07820 171-327): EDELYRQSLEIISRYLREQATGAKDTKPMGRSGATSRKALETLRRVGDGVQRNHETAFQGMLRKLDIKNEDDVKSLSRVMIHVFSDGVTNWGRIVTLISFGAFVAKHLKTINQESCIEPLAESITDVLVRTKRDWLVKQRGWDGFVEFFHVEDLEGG

SMILES	IC50 [1, 3] [nM]	IC50 [2] [nM]	IC50 [1] [nM]
C[C@@H]1[C@@H](C)CCC[C@@](O)([C@@H]2OCCN(C)C2=O)[C@@H]2CC[C@H]2CN2C[C@@]3(CCCc4cc(Cl)ccc43)COc3ccc(cc32)C(=O)NS1(=O)=O [Example 100205, (1S,3′R,6′R,7′S,11′S,12′R)-6-chloro-7′-hydroxy-11′,12′-dimethyl-7′-((2S)-4-methyl-3-oxo-2-morpholinyl)-3,4-dihydro-2H,15′H-spiro[naphthalene-1,22′-[20]oxa[13]thia[1,14]diazatetracyclo [14.7.2.0~3,6~.0~19,24~]pentacosa[16,18,24]trien]-15′-one 13′,13′-dioxide]	0.206	68	–
CC[C@@]1(O)/C=C/C[C@H](C)[C@@H](C)S(=O)(=O)NC(=O)c2ccc3c(c2)N(C[C@@H]2CC[C@H]21)C[C@@]1(CCCc2cc(Cl)ccc21)CO3 [Example 100206, (1S,3′R,6′R,7′R,8′E,11′S,12′R)-6-chloro-7′-ethyl-7′-hydroxy-11′,12′-dimethyl-3,4-dihydro-2H,15′H-spiro[naphthalene-1,22′-[20]oxa[13]thia[1,14]diazatetracyclo [14.7.2.0~3,6~.0~19,24~]pentacosa[8,16,18,24]tetraen]-15′-one 13′,13′-dioxide]	1.26	1750	–
CC[C@]1(O)/C=C/C[C@H](C)[C@@H](C)S(=O)(=O)NC(=O)c2ccc3c(c2)N(C[C@@H]2CC[C@H]21)C[C@@]1(CCCc2cc(Cl)ccc21)CO3 [Example 100207, (1S,3′R,6′R,7′S,8′E,11′S,12′R)-6-chloro-7′-ethyl-7′-hydroxy-11′,12′-dimethyl-3,4-dihydro-2H,15′H-spiro[naphthalene-1,22′-[20]oxa[13]thia[1,14]diazatetracyclo [14.7.2.0~3,6~.0~19,24~]pentacosa[8,16,18,24]tetraen]-15′-one 13′,13′-dioxide]	0.141	215	–
CC(C)[C@]1(O)/C=C/C[C@H](C)[C@@H](C)S(=O)(=O)NC(=O)c2ccc3c(c2)N(C[C@@H]2CC[C@H]21)C[C@@]1(CCCc2cc(Cl)ccc21)CO3 [Example 100208, (1S,3′R,6′R,7′S,8′E,11′S,12′R)-6-chloro-7′-hydroxy-11′,12′-dimethyl-7′-(2-propanyl)-3,4-dihydro-2H,15′H-spiro[naphthalene-1,22′-[20]oxa[13]thia[1,14]diazatetracyclo [14.7.2.0~3,6~.0~19,24~]pentacosa[8,16,18,24]tetraen]-15′-one 13′,13′-dioxide]	0.431	318	–
CCC[C@@]1(O)/C=C/C[C@H](C)[C@@H](C)S(=O)(=O)NC(=O)c2ccc3c(c2)N(C[C@@H]2CC[C@H]21)C[C@@]1(CCCc2cc(Cl)ccc21)CO3 [Example 100209, (1S,3′R,6′R,7′R,8′E,11′S,12′R)-6-chloro-7′-hydroxy-11′,12′-dimethyl-7′-propyl-3,4-dihydro-2H,15′H-spiro[naphthalene-1,22′-[20]oxa[13]thia[1,14]diazatetracyclo [14.7.2.0~3,6~.0~19,24~]pentacosa[8,16,18,24]tetraen]-15′-one 13′,13′-dioxide]	–	3380	2.67
CC(C)[C@@]1(O)/C=C/C[C@H](C)[C@@H](C)S(=O)(=O)NC(=O)c2ccc3c(c2)N(C[C@@H]2CC[C@H]21)C[C@@]1(CCCc2cc(Cl)ccc21)CO3 [Example 100210, (1S,3′R,6′R,7′R,8′E,11′S,12′R)-6-chloro-7′-hydroxy-11′,12′-dimethyl-7′-(2-propanyl)-3,4-dihydro-2H,15′H-spiro[naphthalene-1,22′-[20]oxa[13]thia[1,14]diazatetracyclo [14.7.2.0~3,6~.0~19,24~]pentacosa[8,16,18,24]tetraen]-15′-one 13′,13′-dioxide]	3.47	3360	–
C[C@@H]1[C@@H](C)C/C=C/[C@](O)(C2CC2)[C@@H]2CC[C@H]2CN2C[C@@]3(CCCc4cc(Cl)ccc43)COc3ccc(cc32)C(=O)NS1(=O)=O [Example 100213, (1S,3′R,6′R,7′R,8′E,11′S,12′R)-6-chloro-7′-cyclopropyl-7′-hydroxy-11′,12′-dimethyl-3,4-dihydro-2H,15′H-spiro[naphthalene-1,22′-[20]oxa[13]thia[1,14]diazatetracyclo [14.7.2.0~3,6~.0~19,24~]pentacosa[8,16,18,24]tetraen]-15′-one 13′,13′-dioxide]	2.84	2020	–
C[C@@H]1[C@@H](C)C/C=C/[C@@](O)(C2CC2)[C@@H]2CC[C@H]2CN2C[C@@]3(CCCc4cc(Cl)ccc43)COc3ccc(cc32)C(=O)NS1(=O)=O [Example 100214, (1S,3′R,6′R,7′S,8′E,11′S,12′R)-6-chloro-7′-cyclopropyl-7′-hydroxy-11′,12′-dimethyl-3,4-dihydro-2H,15′H-spiro[naphthalene-1,22′-[20]oxa[13]thia[1,14]diazatetracyclo [14.7.2.0~3,6~.0~19,24~]pentacosa[8,16,18,24]tetraen]-15′-one 13′,13′-dioxide]	0.143	95	–
CO[C@]1(C)/C=C/C[C@H](C)[C@@H](C)S(=O)(=O)NC(=O)c2ccc3c(c2)N(C[C@@H]2CC[C@H]21)C[C@@]1(CCCc2cc(Cl)ccc21)CO3 [Example 100215, (1S,3′R,6′R,7′R,8′E,11′S,12′R)-6-chloro-7′-methoxy-7′,11′,12′-trimethyl-3,4-dihydro-2H,15′H-spiro[naphthalene-1,22′-[20]oxa[13]thia[1,14]diazatetracyclo [14.7.2.0~3,6~.0~19,24~]pentacosa[8,16,18,24]tetraen]-15′-one 13′,13′-dioxide]	–	1250	0.595
C[C@@H]1[C@@H](C)CCC[C@]2(CC(N3CCN(C)CC3)=NO2)[C@@H]2CC[C@H]2CN2C[C@@]3(CCCc4cc(Cl)ccc43)COc3ccc(cc32)C(=O)NS1(=O)=O [Example 100216, (1S,3′R,6′R,7′S,11′S,12′R)-6-chloro-11′,12′-dimethyl-3″-(4-methyl-1-piperazinyl)-3,4-dihydro-2H,4″H,15′H-dispiro[naphthalene-1,22′-[20]oxa[13]thia[1,14]diazatetracyclo [14.7.2.0~3,6~.0~19,24~]pentacosa[16,18,24]triene-7′,5″-[1,2]oxazol]-15′-one 13′,13′-dioxide]	0.311	374	–
CO[C@]1(CCO)/C=C/C[C@H](C)[C@@H](C)S(=O)(=O)NC(=O)c2ccc3c(c2)N(C[C@@H]2CC[C@H]21)C[C@@]1(CCCc2cc(Cl)ccc21)CO3 [Example 100217, (1S,3′R,6′R,7′R,8′E,11′S,12′R)-6-chloro-7′-(2-hydroxyethyl)-7′-methoxy-11′,12′-dimethyl-3,4-dihydro-2H,15′H-spiro[naphthalene-1,22′-[20]oxa[13]thia[1,14]diazatetracyclo [14.7.2.0~3,6~.0~19,24~]pentacosa[8,16,18,24]tetraen]-15′-one 13′,13′-dioxide]	0.183	130	–
CO[C@@]1(CCO)/C=C/C[C@H](C)[C@@H](C)S(=O)(=O)NC(=O)c2ccc3c(c2)N(C[C@@H]2CC[C@H]21)C[C@@]1(CCCc2cc(Cl)ccc21)CO3 [Example 100218, (1S,3′R,6′R,7′S,8′E,11′S,12′R)-6-chloro-7′-(2-hydroxyethyl)-7′-methoxy-11′,12′-dimethyl-3,4-dihydro-2H,15′H-spiro[naphthalene-1,22′-[20]oxa[13]thia[1,14]diazatetracyclo [14.7.2.0~3,6~.0~19,24~]pentacosa[8,16,18,24]tetraen]-15′-one 13′,13′-dioxide]	0.621	675	–
CO[C@@]1(CCO)/C=C/C[C@H](C)[C@@H](C)S(=O)(=O)N(C)C(=O)c2ccc3c(c2)N(C[C@@H]2CC[C@H]21)C[C@@]1(CCCc2cc(Cl)ccc21)CO3 [Example 100219, (1S,3′R,6′R,7′S,8′E,11′S,12′R)-6-chloro-7′-(2-hydroxyethyl)-7′-methoxy-11′,12′,14′-trimethyl-3,4-dihydro-2H,15′H-spiro[naphthalene-1,22′-[20]oxa[13]thia[1,14]diazatetracyclo [14.7.2.0~3,6~.0~19,24~]pentacosa[8,16,18,24]tetraen]-15′-one 13′,13′-dioxide]	0.401	974	–
CC(C)C[C@@]1(O)/C=C/C[C@H](C)[C@@H](C)S(=O)(=O)NC(=O)c2ccc3c(c2)N(C[C@@H]2CC[C@H]21)C[C@@]1(CCCc2cc(Cl)ccc21)CO3 [Example 100220, (1S,3′R,6′R,7′R,8′E,11′S,12′R)-6-chloro-7′-hydroxy-11′,12′-dimethyl-7′-(2-methylpropyl)-3,4-dihydro-2H,15′H-spiro[naphthalene-1,22′-[20]oxa[13]thia[1,14]diazatetracyclo [14.7.2.0~3,6~.0~19,24~]pentacosa[8,16,18,24]tetraen]-15′-one 13′,13′-dioxide]	7.42	6840	–
C[C@@H]1[C@@H](C)C/C=C/[C@](O)(c2ncnn2C)[C@@H]2CC[C@H]2CN2C[C@@]3(CCCc4cc(Cl)ccc43)COc3ccc(cc32)C(=O)NS1(=O)=O [Example 100221, (1S,3′R,6′R,7′R,8′E,11′S,12′R)-6-chloro-7′-hydroxy-11′,12′-dimethyl-7′-(1-methyl-1H-1,2,4-triazol-5-yl)-3,4-dihydro-2H,15′H-spiro[naphthalene-1,22′-[20]oxa[13]thia[1,14]diazatetracyclo [14.7.2.0~3,6~.0~19,24~]pentacosa[8,16,18,24]tetraen]-15′-one 13′,13′-dioxide]	0.525	776	–
C[C@@H]1[C@@H](C)CCC[C@](O)(c2nccn2C)[C@@H]2CC[C@H]2CN2C[C@@]3(CCCc4cc(Cl)ccc43)COc3ccc(cc32)C(=O)NS1(=O)=O [Example 100223, (1S,3′R,6′R,7′R,11′S,12′R)-6-chloro-7′-hydroxy-11′,12′-dimethyl-7′-(1-methyl-1H-imidazol-2-yl)-3,4-dihydro-2H,15′H-spiro[naphthalene-1,22′-[20]oxa[13]thia[1,14]diazatetracyclo [14.7.2.0~3,6~.0~19,24~]pentacosa[16,18,24]trien]-15′-one 13′,13′-dioxide]	1.41	2150	–
